Assay results as given in ChEMBL document CHEMBL1201862, “PubChem BioAssay data set” (2004).
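Step 1: Grow cells in 96-well plates. Step 2: Expose to compound for 48 hours at 5 concentrations. Step 3: Interpolate endpoints linearly; if unreached, use highest concentration. GI50 marks 50% less growth.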 Active and inactive are the calls of the source. No stated cut-off is given here; in the data, active = GI50 up to about 1.1 µM and inactive = higher.

What was measured:
Test in all cases: NCI tumour cell line growth inhibition, 48 h
[1] = test system: NCI-H23
[2] = test system: HCT-15
[3] = test system: IGROV-1
[4] = test system: SK-MEL-2
[5] = test system: Hs-578T
[6] = test system: HCT-116
[7] = test system: HT-29
[8] = test system: OVCAR-8
[9] = test system: RXF 393
[10] = test system: MDA-N
[11] = test system: A498
[12] = test system: KM12
[13] = test system: MDA-MB-231
[14] = test system: CAKI-1
[15] = test system: T47D
[16] = test system: SF-268
[17] = test system: SNB-19
[18] = test system: HOP-62
[19] = test system: M14
[20] = test system: RPMI-8226
[21] = test system: LOX IMVI
[22] = test system: OVCAR-5
[23] = test system: UACC-257
[24] = test system: UO-31
[25] = test system: HCC 2998
[26] = test system: SN12C
[27] = test system: SW-620
[28] = test system: ACHN
[29] = test system: OVCAR-4
[30] = test system: DU-145
[31] = test system: UACC-62
[32] = test system: NCI-H226
[33] = test system: TK-10
[34] = test system: SK-OV-3
[35] = test system: K562
[36] = test system: Malme-3M
[37] = test system: NCI-H460
[38] = test system: SF-295
[39] = test system: BT-549
[40] = test system: SK-MEL-28
[41] = test system: OVCAR-3
[42] = test system: MDA-MB-435
[43] = test system: U-251
[44] = test system: SF-539
[45] = test system: NCI/ADR-RES
[46] = test system: A549
[47] = test system: PC-3
[48] = test system: CCRF-CEM
[49] = test system: 786-0
[50] = test system: SR
[51] = test system: MCF7
[52] = test system: COLO 205
[53] = test system: EKVX
[54] = test system: NCI-H522
[55] = test system: SK-MEL-5
[56] = test system: HL-60
[57] = test system: HOP-92
[58] = test system: MOLT-4

Q: For `CC1CNc2ccccc2N=C1NN` (stereo unspecified), which GI50 [1] is on record?
A: > 100 µM (inactive)

Q: What about the GI50 [2] of the same molecule?
A: > 100 µM

Q: What about the GI50 [3] of the same molecule?
A: > 100 µM (inactive)

Q: What about the GI50 [4] of the same molecule?
A: > 100 µM (inactive)

Q: What about the GI50 [5] of the same molecule?
A: > 100 µM (inactive)

Q: And the GI50 [6]?
A: > 100 µM (inactive)

Q: What about the GI50 [7] of the same molecule?
A: > 100 µM (inactive)

Q: What about the GI50 [8] of the same molecule?
A: > 100 µM (inactive)

Q: What about the GI50 [9] of the same molecule?
A: > 100 µM (inactive)

Q: And the GI50 [10]?
A: > 100 µM (inactive)

Q: What about the GI50 [11] of the same molecule?
A: > 100 µM (inactive)

Q: What about the GI50 [12] of the same molecule?
A: > 100 µM (inactive)

Q: What about the GI50 [13] of the same molecule?
A: > 100 µM (inactive)

Q: What about the GI50 [14] of the same molecule?
A: > 100 µM (inactive)

Q: And the GI50 [15]?
A: > 100 µM (inactive)

Q: And the GI50 [16]?
A: > 100 µM (inactive)

Q: And the GI50 [17]?
A: > 100 µM (inactive)

Q: What about the GI50 [18] of the same molecule?
A: > 100 µM (inactive)

Q: What about the GI50 [19] of the same molecule?
A: > 100 µM (inactive)

Q: And the GI50 [20]?
A: > 36.5 µM (inactive)

Q: And the GI50 [21]?
A: > 69.8 µM (inactive)

Q: And the GI50 [22]?
A: > 100 µM (inactive)

Q: What about the GI50 [23] of the same molecule?
A: > 100 µM (inactive)

Q: And the GI50 [24]?
A: > 100 µM (inactive)

Q: And the GI50 [25]?
A: > 100 µM (inactive)

Q: What about the GI50 [26] of the same molecule?
A: > 100 µM (inactive)

Q: And the GI50 [27]?
A: > 100 µM (inactive)

Q: And the GI50 [28]?
A: > 100 µM (inactive)

Q: What about the GI50 [29] of the same molecule?
A: > 100 µM (inactive)

Q: And the GI50 [30]?
A: > 100 µM (inactive)

Q: What about the GI50 [31] of the same molecule?
A: > 100 µM (inactive)

Q: And the GI50 [32]?
A: > 100 µM (inactive)

Q: What about the GI50 [33] of the same molecule?
A: > 100 µM (inactive)

Q: And the GI50 [34]?
A: > 100 µM (inactive)

Q: What about the GI50 [35] of the same molecule?
A: > 100 µM (inactive)

Q: What about the GI50 [36] of the same molecule?
A: > 100 µM (inactive)

Q: And the GI50 [37]?
A: > 100 µM (inactive)

Q: What about the GI50 [38] of the same molecule?
A: > 100 µM (inactive)

Q: What about the GI50 [39] of the same molecule?
A: > 100 µM (inactive)

Q: What about the GI50 [40] of the same molecule?
A: > 100 µM (inactive)

Q: And the GI50 [41]?
A: > 100 µM (inactive)

Q: What about the GI50 [42] of the same molecule?
A: > 100 µM (inactive)

Q: What about the GI50 [43] of the same molecule?
A: > 100 µM (inactive)

Q: What about the GI50 [44] of the same molecule?
A: > 100 µM (inactive)

Q: What about the GI50 [45] of the same molecule?
A: > 100 µM (inactive)

Q: What about the GI50 [46] of the same molecule?
A: > 100 µM (inactive)

Q: And the GI50 [47]?
A: > 100 µM (inactive)

Q: What about the GI50 [48] of the same molecule?
A: 22.7 µM (inactive)

Q: What about the GI50 [49] of the same molecule?
A: > 100 µM (inactive)

Q: What about the GI50 [50] of the same molecule?
A: > 100 µM (inactive)

Q: And the GI50 [51]?
A: > 100 µM (inactive)

Q: What about the GI50 [52] of the same molecule?
A: > 100 µM (inactive)

Q: And the GI50 [53]?
A: > 100 µM (inactive)

Q: And the GI50 [54]?
A: > 100 µM (inactive)

Q: What about the GI50 [55] of the same molecule?
A: > 100 µM (inactive)

Q: Which GI50 [1] does the source give for `COc1cc2c(cc1OC)C(=O)/C(=C/c1ccc(O)cc1)CC2` here?
A: > 10 µM (inactive)

Q: What about the GI50 [2] of the same molecule?
A: > 10 µM

Q: What about the GI50 [3] of the same molecule?
A: > 10 µM (inactive)

Q: What about the GI50 [4] of the same molecule?
A: > 10 µM (inactive)

Q: And the GI50 [5]?
A: > 10 µM (inactive)

Q: What about the GI50 [6] of the same molecule?
A: > 10 µM (inactive)

Q: And the GI50 [7]?
A: > 10 µM (inactive)

Q: What about the GI50 [8] of the same molecule?
A: > 10 µM (inactive)

Q: And the GI50 [9]?
A: > 10 µM (inactive)

Q: And the GI50 [10]?
A: > 10 µM (inactive)

Q: What about the GI50 [12] of the same molecule?
A: > 10 µM (inactive)

Q: What about the GI50 [13] of the same molecule?
A: > 10 µM (inactive)

Q: What about the GI50 [14] of the same molecule?
A: 5.82 µM (inactive)

Q: And the GI50 [15]?
A: > 10 µM (inactive)

Q: And the GI50 [16]?
A: > 10 µM (inactive)

Q: And the GI50 [17]?
A: > 10 µM (inactive)

Q: What about the GI50 [18] of the same molecule?
A: > 10 µM (inactive)

Q: And the GI50 [19]?
A: > 10 µM (inactive)

Q: What about the GI50 [20] of the same molecule?
A: > 10 µM (inactive)

Q: And the GI50 [21]?
A: > 10 µM (inactive)

Q: What about the GI50 [22] of the same molecule?
A: > 10 µM (inactive)

Q: And the GI50 [23]?
A: > 10 µM (inactive)

Q: And the GI50 [24]?
A: 2.34 µM (inactive)

Q: What about the GI50 [25] of the same molecule?
A: > 10 µM (inactive)

Q: What about the GI50 [26] of the same molecule?
A: > 10 µM (inactive)

Q: And the GI50 [56]?
A: 7.31 µM (inactive)

Q: What about the GI50 [57] of the same molecule?
A: > 10 µM (inactive)

Q: What about the GI50 [27] of the same molecule?
A: > 10 µM (inactive)

Q: What about the GI50 [28] of the same molecule?
A: > 10 µM (inactive)

Q: And the GI50 [29]?
A: > 10 µM (inactive)

Q: And the GI50 [30]?
A: > 10 µM (inactive)

Q: What about the GI50 [31] of the same molecule?
A: > 10 µM (inactive)

Q: And the GI50 [32]?
A: > 10 µM (inactive)

Q: What about the GI50 [33] of the same molecule?
A: > 10 µM (inactive)

Q: What about the GI50 [34] of the same molecule?
A: > 10 µM (inactive)

Q: And the GI50 [35]?
A: > 10 µM (inactive)

Q: And the GI50 [36]?
A: > 10 µM (inactive)

Q: What about the GI50 [37] of the same molecule?
A: > 10 µM (inactive)

Q: What about the GI50 [38] of the same molecule?
A: > 10 µM (inactive)

Q: And the GI50 [39]?
A: > 10 µM (inactive)

Q: What about the GI50 [40] of the same molecule?
A: > 10 µM (inactive)

Q: What about the GI50 [41] of the same molecule?
A: > 10 µM (inactive)

Q: What about the GI50 [42] of the same molecule?
A: > 10 µM (inactive)

Q: And the GI50 [43]?
A: > 10 µM (inactive)

Q: And the GI50 [44]?
A: > 10 µM (inactive)

Q: What about the GI50 [45] of the same molecule?
A: > 10 µM (inactive)

Q: And the GI50 [46]?
A: > 10 µM (inactive)

Q: What about the GI50 [58] of the same molecule?
A: > 10 µM (inactive)

Q: And the GI50 [47]?
A: > 10 µM (inactive)

Q: What about the GI50 [48] of the same molecule?
A: 1.97 µM (inactive)

Q: What about the GI50 [49] of the same molecule?
A: > 10 µM (inactive)

Q: And the GI50 [50]?
A: > 10 µM (inactive)

Q: What about the GI50 [51] of the same molecule?
A: > 10 µM (inactive)

Q: What about the GI50 [52] of the same molecule?
A: > 10 µM (inactive)

Q: And the GI50 [53]?
A: > 10 µM (inactive)

Q: What about the GI50 [55] of the same molecule?
A: > 10 µM (inactive)
